# In patent US12600931B2, “Microfluidic cell culture plate for air-liquid interface and 3D cultured tissue applications” (priority 2020, dated 2026):
# Entries after “also recorded” stand apart in the source; their conditions may differ. Structures can show the parent of a compound that is named as a salt. Where two headings read alike, the source gives them in different places.
# Assays:
# [1] = tested on: IAV in human primary bronchial epithelial cells; details: reported; cited from earlier work
# [2] = tested on: HCoV-NL63; format: cell-based; details: 20 μM CM vs untreated/vehicle, 48 and 96 h p.i., particularly MOI=0.005, qualitative, scatter limits statistical significance
# [3] = tested on: HCoV-NL63 in Calu-3 cells; details: reported; cited from earlier work
# [4] = tested on: A/WSN/33 strain of IAV; format: cell-based, influenza A virus
# [5] = tested on: A/WSN/33 strain of IAV; format: cell-based, influenza A virus; remark: listed apart in the source
# [6] = tested on: A/Hong Kong/8/68 H3N2; format: cell-based, influenza A virus
# [7] = tested on: A/Hong Kong/8/68 H3N2; format: cell-based, influenza A virus; remark: listed apart in the source
SMILES,infection by IAV in human primary bronchial epithelial cells [1],"viral copy number (RT-qPCR, apical wash) [2]","viral copy number (RT-qPCR, apical wash) ([2]; listed as CM)",infection by HCoV-NL63 in Calu-3 cells [3],viral titers (qRT-PCR) [4],effect of oseltamivir on barrier function (TEER) [5],virus-induced disruption to barrier function and epithelial tight junction formation [6],"influenza replication (viral copies, RT-qPCR) [7]",viral copies in apical wash in response to oseltamivir dose [7]
"CN(C)C(=O)COC(=O)Cc1ccc(OC(=O)c2ccc(NC(=N)N)cc2)cc1 [camostat mesylate, Camostat mesylate]",partially block infection,observed reduction in viral copies,reduces viral copy number,partially block infection,–,–,–,–,–
"CCC(CC)O[C@@H]1C=C(C(=O)O)C[C@H](N)[C@H]1NC(C)=O [oseltamivir, Oseltamivir carboxylate]",–,–,–,–,reduction in viral titers,protective effect on barrier function,prevented virus-induced disruption to barrier function and epithelial tight junction formation,significantly reduced influenza replication,marked decrease in viral copies; also recorded: reduce viral copies
